The target in one experiment is T1, OR5A2 (clone 3) (Homo sapiens, UniProt Q8NGI9).
T1 construct: expressed in transfected cells; clone 3 selected with musk ambrette and puromycin
T1 sequence (Q8NGI9 with tags, fused parts or gaps): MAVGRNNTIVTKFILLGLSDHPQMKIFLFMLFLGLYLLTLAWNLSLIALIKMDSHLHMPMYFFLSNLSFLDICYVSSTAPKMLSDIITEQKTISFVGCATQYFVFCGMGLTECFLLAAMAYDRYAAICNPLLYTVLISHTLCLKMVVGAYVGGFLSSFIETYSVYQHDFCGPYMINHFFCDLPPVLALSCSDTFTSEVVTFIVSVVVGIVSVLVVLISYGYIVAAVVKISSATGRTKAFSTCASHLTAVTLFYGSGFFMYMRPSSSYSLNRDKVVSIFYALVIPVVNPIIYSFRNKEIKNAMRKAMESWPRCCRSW
Put plainly: Ligand-induced puromycin resistance of isolated clone 3 containing OR5A2. In kind it is cell-based. The conditions noted are these: clone 3 (OR5A2), 11 concentrations of puromycin, co-treated with olfactory ligands.

The target in experiment [1] is T2, pool of cells with OR5A1, OR5A2, OR5AN1, OR6Y1, OR10G4, OR10G7 or OR10G9 (Homo sapiens, UniProt Q8NGN6).
T2 construct: expressed in transfected cells; host or cells: HEK293T stably expressing RTP1S and RTP2; 7 separate transfections pooled
T2 sequence (Q8NGN6 1-311): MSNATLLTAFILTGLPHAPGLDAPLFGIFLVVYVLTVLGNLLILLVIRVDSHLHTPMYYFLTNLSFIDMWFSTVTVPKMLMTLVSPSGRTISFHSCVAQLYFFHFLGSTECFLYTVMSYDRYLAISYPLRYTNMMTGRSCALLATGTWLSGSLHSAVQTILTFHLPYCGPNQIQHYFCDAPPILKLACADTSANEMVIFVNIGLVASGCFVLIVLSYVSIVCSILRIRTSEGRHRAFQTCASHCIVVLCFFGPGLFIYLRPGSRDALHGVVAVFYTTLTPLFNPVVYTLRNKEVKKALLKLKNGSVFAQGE
Put plainly: Selection of cognate-receptor cells from a pool of OR-expressing cells with the target ligand and puromycin. Type of experiment: cell-based. The conditions noted are these: 1 μM eugenol, puromycin 1 μg/ml, pool of 7 OR transfections. The protocol:
For many ligands the cognate OR receptors are not known (“orphan receptors”), or it is unknown among a pool of receptors, which one has the best affinity for a ligand of interest, e.g. a perfumery note of particular interest. Thus, the ligand-induced selection pressure can be used to enrich a specific OR-expressing cell from a pool of OR-expressing cells in the presence of a ligand of interest. HEK293T cells stably expressing RTP1S and RTP2 were seeded into 7 wells of 6-well plates at 330,000 cells/well.
The next day, the cells of each well were transfected with 2 μg of a PvuI-linearized pGL4.29-CRE-Puro-Hygro-OR construct harboring one of the receptors OR5A1 (NCBI Genbank Gene ID: 219982), OR5A2 (NCBI Genbank Gene ID: 219981), OR5AN1 NCBI Genbank Gene ID: 390195, SEQ ID NO: 70), OR6Y1 (NCBI Genbank Gene ID: 391112), OR10G4 (NCBI Genbank Gene ID: 390264, SEQ ID NO: 72), OR10G7 (NCBI Genbank Gene ID: 390265, SEQ ID NO: 71), or OR10G9 (NCBI Genbank Gene ID: 219870). 24 h after transfection, the cells of all 7 transfections were harvested and pooled. 350 cells of this pool of cells with different OR genes inserted were then seeded into each well of seven 96-well plates.
3 days later, cells were stimulated with ligands for either OR5AN1 (10 μM musk ketone), OR10G7 (1 μM eugenol), or OR10G4 (100 μM vanitrope). One plate was treated with DMSO only. 6h after the addition of the OR ligands, puromycin was added to each plate at a final concentration of 1 μg/ml. On every day during the following week, the medium on all plates was replaced with fresh medium containing the corresponding ligand and puromycin. The plates were then searched for wells containing only a single colony of puromycin-resistant cells. The cells of those colonies were transferred to larger plates and grown until they had multiplied to about 8 Mio cells. The genomic DNA of 2 Mio cells of each clone were isolated using the Puregene kit according to the manufacturer's protocol. […]

With `C=CCc1ccc(O)c(OC)c1` [eugenol], the “puromycin resistance of clone 3 in presence of odorant” value at OR5A2 (clone 3) was “no increased resistance”. Besides, the “clones selected with the ligand that contained OR10G7” value in experiment [1] is reported as 8 out of 8.
